We go through 20 compounds from patent publication US20240217978A1 (CHONG KUN DANG PHARMACEUTICAL CORP., priority 2021, published 2024).

This assay concerns the target human adenosine A2a receptor (Homo sapiens (Human), UniProt P29274). In words: A2a receptor binding affinity, [3H]-NECA radioligand binding test. The note with it: [3H]-NECA 37 nM; membrane from HEK-293 cells transfected with human adenosine A2a receptor. An outline of the steps:
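IC50 values (μM) come from displacement of [3H]-NECA, used at 37 nM final, on human A2a receptor membranes from transfected HEK-293 cells. Incubation lasted one hour at room temperature in Tris/MgCl2/EDTA buffer, pH 7.4; filter-bound radioactivity was counted by scintillation.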

human adenosine A2a receptor, sequence (P29274 whole entry): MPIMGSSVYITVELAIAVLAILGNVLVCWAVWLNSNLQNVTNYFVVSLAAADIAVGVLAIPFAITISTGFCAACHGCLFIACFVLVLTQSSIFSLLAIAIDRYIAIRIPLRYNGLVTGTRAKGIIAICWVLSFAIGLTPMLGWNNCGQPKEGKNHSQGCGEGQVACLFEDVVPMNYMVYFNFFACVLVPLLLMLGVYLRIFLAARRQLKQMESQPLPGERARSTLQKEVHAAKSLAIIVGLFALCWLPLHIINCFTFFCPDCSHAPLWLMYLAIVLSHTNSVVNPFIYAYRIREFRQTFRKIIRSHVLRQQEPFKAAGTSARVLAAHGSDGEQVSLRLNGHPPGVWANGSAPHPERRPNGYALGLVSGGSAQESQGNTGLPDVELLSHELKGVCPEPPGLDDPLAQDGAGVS

As a reminder, the IC50 is the point on the concentration scale where inhibition reaches its midpoint. High values mean weaker potency, low ones greater potency. `CN(CC(F)(F)F)C1CCN(C(=O)[C@@H]2CCCN2c2nc(N)n3nc(-c4ccco4)nc3n2)CC1` [Example 337, (S)-(1-(7-amino-2-(furan-2-yl)-[1,2,4]triazolo[1,5-a][1,3,5]triazin-5-yl)pyrrolidin-2-yl)(4-(methyl(2,2,2-trifluoroethyl)amino)piperidin-1-yl)methanone] gave an IC50 of 9 nM.

The compound `Nc1nc(N2CCC[C@H]2C(=O)N2CCC(C3CCN(C(=O)c4ccccc4)CC3)CC2)nc2nc(-c3ccco3)nn12` [Example 161, (1′-((7-amino-2-(furan-2-yl)-[1,2,4]triazolo[1,5-a][1,3,5]triazin-5-yl)-L-prolyl)-[4,4′-bipiperidin]-1-yl)(phenyl)methanone] had an IC50 of 9 nM.

`CC(C)[C@H](Nc1nc(N)n2nc(-c3ccco3)nc2n1)C(=O)N1CCN(Cc2ccccc2)CC1` [Example 58, (S)-2-((7-amino-2-(furan-2-yl)-[1,2,4]triazolo[1,5-a][1,3,5]triazin-5-yl)amino)-1-(4-benzylpiperazin-1-yl)-3-methylbutan-1-one] came in with an IC50 of 15 nM.

Regarding `CCCCN1CCN(C(=O)[C@@H]2CCCN2c2nc(N)c3nc(-c4ccc(C)o4)sc3n2)CC1` [Example 243, (S)-(1-(7-amino-2-(5-methylfuran-2-yl)thiazolo[5,4-d]pyrimidin-5-yl)pyrrolidin-2-yl)(4-butylpiperazin-1-yl)methanone], the IC50 turned out to be 14 nM.

For `Nc1nc(N2CCC[C@H]2C(=O)N2CCN(c3cnccn3)CC2)nc2nc(-c3ccco3)nn12` [Example 126, (S)-(1-(7-amino-2-(furan-2-yl)-[1,2,4]triazolo[1,5-a][1,3,5]triazin-5-yl)pyrrolidin-2-yl)(4-(pyrazin-2-yl)piperazin-1-yl)methanone], the IC50 was found to be 9 nM.

`CC(C)(O)C(=O)N1CCN(C(=O)[C@@H]2CCN2c2nc(N)n3nc(-c4ccco4)nc3n2)CC1` [Example 267, (S)-1-(4-(1-(7-amino-2-(furan-2-yl)-[1,2,4]triazolo[1,5-a][1,3,5]triazin-5-yl)azetidine-2-carbonyl)piperazin-1-yl)-2-hydroxy-2-methylpropan-1-one] came in with an IC50 of 10.8 nM.

Regarding `CCC(F)(F)CN1CCN(C(=O)[C@@H]2CCCN2c2cc3nc(-c4ccco4)nn3c(N)n2)CC1` [Example 295, (S)-(1-(5-amino-2-(furan-2-yl)-[1,2,4]triazolo[1,5-c]pyrimidin-7-yl)pyrrolidin-2-yl)(4-(2,2-difluorobutyl)piperazin-1-yl)methanone], the IC50 worked out at 1 nM.

Compound `Nc1nc(N2CCC[C@H]2C(=O)N2CCN(CC(F)(F)C(F)F)CC2)nc2nc(-c3ccco3)nn12` [Example 226, (S)-(1-(7-amino-2-(furan-2-yl)-[1,2,4]triazolo[1,5-a][1,3,5]triazin-5-yl)pyrrolidin-2-yl)(4-(2,2,3,3-tetrafluoropropyl)piperazin-1-yl)methanone] returned an IC50 of 7 nM. Compared with the last compound, the IC50 is about 7-fold higher.

For `Nc1nc(N2CCCC[C@H]2C(=O)N2CCN(CC(F)(F)C(F)F)CC2)nc2nc(-c3ccco3)nn12` [Example 279, (S)-(1-(7-amino-2-(furan-2-yl)-[1,2,4]triazolo[1,5-a][1,3,5]triazin-5-yl)piperidin-2-y1)(4-(2,2,3,3-tetrafluoropropyl)piperazin-1-yl)methanone], the IC50 was 14 nM.

In the case of `CCC(O)(CC)CN1CCN(C(=O)[C@@H]2CCCN2c2nc(N)n3nc(-c4ccc(C)o4)nc3n2)CC1` [Example 88, (S)-(1-(7-amino-2-(5-methylfuran-2-yl)-[1,2,4]triazolo[1,5-a][1,3,5]triazin-5-yl)pyrrolidin-2-yl)(4-(2-ethyl-2-hydroxybutyl)piperazin-1-yl) methanone], the IC50 came to 12 nM.

As for `Nc1nc(N2CCC[C@H]2C(=O)N2CCC3(CC2)CN(C(=O)Nc2ccccc2)C3)nc2nc(-c3ccco3)nn12` [Example 183, 7-((7-amino-2-(furan-2-yl)-[1,2,4]triazolo[1,5-a][1,3,5]triazin-5-yl)-L-prolyl)-N-phenyl-2,7-diazaspiro[3.5]nonane-2-carboxamide], the IC50 stood at 2 nM.

`Nc1nc(N[C@H](C(=O)N2CCN(CC(F)(F)C(F)F)CC2)C2CC2)nc2nc(-c3ccco3)nn12` [Example 359, (S)-2-((7-amino-2-(furan-2-yl)-[1,2,4]triazolo [1,5-a][1,3,5]triazin-5-yl)amino)-2-cyclopropyl-1-(4-(2,2,3,3-tetrafluoropropyl)piperazin-1-yl)ethan-1-one] returned an IC50 of 5 nM.

The compound `CC(C)(O)CC(=O)N1CCN(C(=O)[C@@H]2CCCN2c2nc(N)c3nc(-c4ccco4)sc3n2)CC1` [Example 262, 1-(4-((7-amino-2-(furan-2-yl)thiazolo[5,4-d]pyrimidin-5-yl)-L-prolyl)piperazin-1-yl)-3-hydroxy-3-methylbutan-1-one] came in with an IC50 of 5 nM.

Regarding `Nc1nc(N2CC[C@H]2C(=O)N2CCN(c3ncccn3)CC2)nc2nc(-c3ccco3)nn12` [Example 242, (S)-(1-(7-amino-2-(furan-2-yl)-[1,2,4]triazolo[1,5-a][1,3,5]triazin-5-yl)azetidin-2-yl)(4-(pyrimidin-2-yl)piperazin-1-yl)methanone], the IC50 turned out to be 9 nM.

On to `CCCCN1CCN(C(=O)[C@@H]2CCCN2c2nc(N)n3nc(-c4ccco4)nc3n2)CC1=O` [Example 247, 4-((7-amino-2-(furan-2-yl)-[1,2,4]triazolo[1,5-a][1,3,5]triazin-5-yl)-L-prolyl)-1-butylpiperazin-2-one], for which the IC50 was determined as 2 nM.

In turn, `Nc1nc(N2CCC[C@H]2C(=O)N2C3CCC2CN(C(=O)c2ccccc2)C3)nc2nc(-c3ccco3)nn12` [Example 158, (8-((7-amino-2-(furan-2-yl)-[1,2,4]triazolo[1,5-a][1,3,5]triazin-5-yl)-L-prolyl)-3,8-diazabicyclo[3.2.1]octan-3-yl)(phenyl)methanone] yielded an IC50 of 12 nM.

The compound `Cc1ccc(-c2nc3nc(N4CC[C@H]4C(=O)N4CCN(CC(F)(F)F)CC4)nc(N)n3n2)o1` [Example 220, (S)-(1-(7-amino-2-(5-methylfuran-2-yl)-[1,2,4]triazolo[1,5-a][1,3,5]triazin-5-yl)azetidin-2-yl)(4-(2,2,2-trifluoroethyl)piperazin-1-yl)methanone] had an IC50 of 15 nM.

`CC(C)[C@H](Nc1nc(N)n2nc(-c3ccco3)nc2n1)C(=O)N1CCN(CC(C)(C)O)CC1` [Example 351, (S)-2-((7-amino-2-(furan-2-yl)-[1,2,4]triazolo[1,5-a][1,3,5]triazin-5-yl)amino)-1-(4-(2-hydroxy-2-methylpropyl)piperazin-1-yl)-3-methylbutan-1-one] showed an IC50 of 17 nM.

Consider `CC(F)(F)CN1CCN(C(=O)[C@@H]2CCCN2c2nc(N)n3nc(-c4ccco4)nc3n2)CC1` [Example 224, (S)-(1-(7-amino-2-(furan-2-yl)-[1,2,4]triazolo[1,5-a][1,3,5]triazin-5-yl)pyrrolidin-2-yl)(4-(2,2-difluoropropyl)piperazin-1-yl)methanone], for which the IC50 was determined as 6 nM.

In the case of `Nc1nc(N[C@H](C(=O)N2CCN(c3ccc(F)cc3F)CC2)C2CCC2)nc2nc(-c3ccco3)nn12` [Example 169, (S)-2-((7-amino-2-(furan-2-yl)-[1,2,4]triazolo[1,5-a][1,3,5]triazin-5-yl)amino)-2-cyclobutyl-1-(4-(2,4-difluorophenyl)piperazin-1-yl)ethan-1-one], the IC50 turned out to be 0.1 nM.
